The assay has as its system colon (colonic purgation). Kind of assay: Stool output of normal volunteers after one amount of laxative, bowel movements collected 24 hours. The format is in vivo, human. Particulars: 20 mg, 24 hours collection. As to the method:
The sulfate salt solutions such as those described herein were investigated for their efficacy as colon debulking agents because bisacodyl has been associated with reports of abdominal cramping. Four different solutions were prepared with varying amounts of sodium, magnesium, and potassium sulfate salts and each containing a total sulfate amount of 125 mM.
These included bisacodyl (20 mg), a PEG and balanced electrolyte isotonic preparation (NuLYTELY®, (2 L or 4 L) or HalfLytely®+Bisacodyl Bowel Prep Kit, (2 L PEG and electrolytes and 10 mg bisacodyl). Bowel movements and urine were collected for 24 hours. The stool output of the subjects were compared and evaluated for movement of electrolytes between the solution and the subject.
The results measured were mean stool volume output and are shown below in Table 2 using non-sulfate laxatives and in Table 3 using sulfate laxatives.

Results on one molecule are retold here after patent publication US20140087007A1, “BOWEL CLEANSING PREPARATIONS” (Braintree Laboratories, Inc., priority 2012, published 2014).

Turning to `CC(=O)Oc1ccc(C(c2ccc(OC(C)=O)cc2)c2ccccn2)cc1` [Bisacodyl, bisacodyl], the “% Solids (stool)” value is 50.4% and the “Output (mean stool volume output)” value was 757 g.
